We go through 2 compounds from ChEMBL document CHEMBL5329153, “Is structural hybridization invoking new dimensions for antimalarial drug discovery research?” (RSC Med Chem, 2023).

In assay [1] the test system is Plasmodium falciparum. Description: Antimalarial activity against Chloroquine sensitive Plasmodium falciparum D6 assessed as parasitic growth inhibition. It counts as functional, organism-based.
Assay [2] relates to Plasmodium falciparum. Description: Antimalarial activity against Chloroquine resistant Plasmodium falciparum W2 assessed as parasitic growth inhibition. The format is functional, organism-based.
Assay [3] has as its system Plasmodium falciparum. Description: Potency index, ratio of chloroquine IC50 to test compound IC50 for antimalarial activity against Chloroquine resistant Plasmodium falciparum W2 assessed as parasitic growth inhibition. It counts as functional.
Assay [4] relates to Plasmodium falciparum. Description: Potency index, ratio of chloroquine IC50 to test compound IC50 for antimalarial activity against Chloroquine sensitive Plasmodium falciparum D6 assessed as parasitic growth inhibition. It counts as functional.
For assay [5], the system named is Plasmodium falciparum. Description: Antimalarial activity against Plasmodium falciparum female gametocytes assessed as parasitic growth inhibition. The format is functional, organism-based.
The subject of assay [6] is Plasmodium falciparum. Description: Potency index, ratio of artesunate IC50 to test compound IC50 for antimalarial activity against Plasmodium falciparum female gametocytes assessed as parasitic growth inhibition. The format is functional.
Assay [7] relates to Plasmodium falciparum. Description: Antimalarial activity against Plasmodium falciparum male gametocytes assessed as parasitic growth inhibition by exflagellation assay. The format is functional, organism-based.
Assay [8] relates to Plasmodium falciparum. Description: Potency index, ratio of mefloquine IC50 to test compound IC50 for antimalarial activity against Plasmodium falciparum female gametocytes assessed as parasitic growth inhibition. The format is functional.
Assay [9] deals with Plasmodium falciparum. Description: Antimalarial activity against Plasmodium falciparum male gametocytes assessed as parasitic growth inhibition. It counts as functional, organism-based.

The term IC50 denotes the concentration needed to halve the response being measured. Consider `Cc1cc(NCCCCNc2ccnc3cc(Cl)ccc23)nc(Nc2ccc(C(=O)N3CCOCC3)cc2)n1`, for which the IC50 in [1] is 0.032 µM; in assay [2], 0.033 µM. For the same compound, the “Ratio IC50” value in assay [3] and in [4] was 11 each time.
On to `C[C@H]1[C@@H](OC(=O)CCC(=O)O)O[C@@H]2C[C@@]3(C)CC[C@H]4[C@H](C)CC[C@@H]1[C@@]24OO3.Cc1cccc2c(C(O)C3CCCCN3)cc(C(F)(F)F)nc12` (racemic), for which the IC50 in assay [5] stood at 0.02 µM; in assay [7] it was 0.017 µM; in [9], 4.6 µM. For the same compound, the “Ratio IC50” value in assay [6] is 15; in [8], 280.
